Patent US10183944B2 (Asana Biosciences, LLC, priority 2011, dated 2019)
Values joined by “and” are separate entries in the source; they are usually repeats but may differ in a detail not shown here. Identical values can stand only once. Like-named read-outs stand apart in the source and are kept apart here. Marks after values point to notes of the source that are not given here.

Key:
[1] = tested on: Arthus reaction in female c57BL/6 mice; experiment: In vivo acute study: Arthus reaction model in mice; design: species or system mouse; conditions: for OD % Inhibition: dye extravasation (OD 610 nm)
Text: Arthus reaction is a type of local type III hypersensitivity reaction. Type III hypersensitivity reactions are immune complex-mediated, and involve the deposition of antigen/antibody complexes mainly in the vascular walls, serosa (pleura, pericardium, synovium), and glomeruli. This involves formation of antigen/antibody complexes after the intradermal injection of an antibody. If the animal was previously injected with antigen and dye (has circulating antigen), an Arthus reaction occurs. This manifests as local vasculitis due to deposition of immune complexes in dermal blood vessels. Activation of complement and recruitment of PMNs ensue, resulting in an inflammatory response and extravasation of dye to the skin. Compounds which can inhibit this complex process can have therapeutic implications in wide range of inflammatory and auto-immune disorders. See, Pine, “Inflammation and bone erosion are suppressed in models of rheumatoid arthritis following treatment with a novel Syk inhibitor”; Clin. Immunol. (2007) 124 (3): 244-57; and Sylvia, “R-406, an Orally Available Spleen Tyrosine Kinase Inhibitor Blocks Fc Receptor Signaling and Reduces Immune Complex-Mediated Inflammation”, JPET 319:998-1008, 2006, which are herein incorporated by reference.
Female c57BL/6 mice were given an antigen injection in which the antigen was 0.1% Ovalbumin (OVA) in PBS containing 1% Evans blue (EB) at the concentration of 10 mL/kg intravenously under Isoflurane anesthesia [2.5 mg/mouse with a body weight of 25 g]. Ten minutes after antigen injection; the animals were injected with the rabbit anti-OVA IgG (50 μg in 25 μL/site) (Polysciences; Cat #23744) intradermally on the shaved back at two top locations. Animals were also injected with phosphate buffered saline (PBS, 25 μL) intradermally on the back at two bottom and opposite locations to serve as negative control. The mice were euthanized by cervical dislocation 4 hours after antigen (Ovalbumin) challenge. Skin tissue was assessed for edema by tracing the edema area on to a transparent plastic sheet. Punch biopsies of the injection sites were collected.
Edema area was measured manually by scale. Two diameters were taken and averaged for each animal.
Punch biopsies of the injection sites (using 10 mm skin biopsy punches) were incubated in 2 mL of sodium sulfate: acetone mixture (0.6+1.4 mL) at room temperature for 16-18 hours. The supernatants were removed from digested tissues by centrifuging at 4000 rpm for 10 minutes, filtered and were read spectrophotometrically at 610 nm.
The percent inhibition of dye leakage was calculated with respect to control by the formula: […]
The percent inhibition of edema area was calculated with respect to control by the formula: […]
Means of different groups were compared with control using One way ANOVA followed by Dunnett's test. Significance was represented as follows.

[2] = tested on: RBL2H3 cells; experiment: Degranulation assay: β-hexosaminidase release during immune complex mediated degranulation; format: cell-based, rat; conditions: Rattus norvegicus, RBL-2H3; for inhibition at 1 µM: read-out: Degranulation % inhibition at 1 μM; for EC50: read-out: Degranulation EC50
In short: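 RBL2H3 cells sensitized overnight (or 24 h) with anti-DNP rat IgE, pretreated 15 min with compounds in 0.5% DMSO, then challenged with DNP-BSA for 45–60 min. β-Hexosaminidase in supernatant read fluorometrically (Ex 355/Em 460 nm) with β-NAG substrate, 30 min RT; % release/inhibition calculated.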

[3] = Assay Protocol A (24 well format)
[4] = Assay Protocol B (96 well format)

EC50 [2, 3] [nM] | Compound | inhibition at 1 µM [2, 3] [%] | inhibition at 1 µM [2, 4] [%] | EC50 [2, 4] [nM] | also measured
86 | Cl.O=c1[nH]ncc2nc(-c3ccccc3)nc(Nc3ccc(CN4CCNCC4)cc3)c12 [Example 7, 2-phenyl-4-(4-(piperazin-1-ylmethyl)phenylamino)pyrimido[4,5-d]pyridazin-5(6H)-one hydrochloride] | 92 |  |  | Edema area % Inhibition ([1]; dose 3 mg/Kg): 41*** %; Edema area % Inhibition ([1]; dose 10 mg/Kg, hydrochloride): 45*** % and 53*** % and 30%; Edema area % Inhibition ([1]; dose 30 mg/Kg, hydrochloride): 68*** % and 74*** %; OD % Inhibition ([1]; dose 3 mg/Kg): 40*** %; OD % Inhibition ([1]; dose 30 mg/Kg, hydrochloride): 67*** % and 65*** %
47 | O=C(O)C1CCN(c2ccc(Nc3nc(-c4ccccc4)nc4cn[nH]c(=O)c34)cc2)CC1 [Example 13, 1-(4-(5-oxo-2-phenyl-5,6-dihydropyrimido[4,5-d]pyridazin-4-ylamino)phenyl)piperidine-4-carboxylic acid] | 100 |  |  | Edema area % Inhibition ([1]; dose 10 mg/Kg): 53*** %; Edema area % Inhibition ([1]; dose 30 mg/Kg): 40** %; OD % Inhibition ([1]; dose 10 mg/Kg): 27%; OD % Inhibition ([1]; dose 30 mg/Kg): 30%
19 | O=C(O)C1CC12CCN(c1ccc(Nc3nc(-c4ccccc4)nc4cn[nH]c(=O)c34)cc1)CC2 (stereo not drawn) [Example 19, 6-(4-(5-oxo-2-phenyl-5,6-dihydropyrimido[4,5-d]pyridazin-4-ylamino)phenyl)-6-azaspiro[2.5]octane-1-carboxylic acid] | 100 |  |  | Edema area % Inhibition ([1]; dose 3 mg/Kg): 48*** %; Edema area % Inhibition ([1]; dose 30 mg/Kg): 60*** %; OD % Inhibition ([1]; dose 3 mg/Kg): 53*** %; OD % Inhibition ([1]; dose 30 mg/Kg): 60*** %
 | O=C(O)C1CC12CCN(c1ccc(Nc3nc(N4CCCCCC4)nc4cn[nH]c(=O)c34)cc1)CC2 (stereo not drawn) [Example 62, 6-(4-((2-(azepan-1-yl)-5-oxo-5,6-dihydropyrimido[4,5-d]pyridazin-4-yl)amino)phenyl)-6-azaspiro[2.5]octane-1-carboxylic acid] |  | 100 | 49 | 
 | O=C(O)CC1CCN(c2ccc(Nc3nc(N4CCCCCC4)nc4cn[nH]c(=O)c34)cn2)CC1 [Example 108, 2-(1-(5-((2-(azepan-1-yl)-5-oxo-5,6-dihydropyrimido[4,5-d]pyridazin-4-yl)amino)pyridin-2-yl)piperidin-4-yl) acetic acid] |  | 98 | 68 | 
 | N#CCC1CCN(c2nc(Nc3ccc(N4CCC(O)CC4)cc3)c3c(=O)[nH]ncc3n2)CC1 [Example 189, 2-(1-(4-((4-(4-hydroxypiperidin-1-yl)phenyl)amino)-5-oxo-5,6-dihydropyrimido[4,5-d]pyridazin-2-yl)piperidin-4-yl)acetonitrile] |  | 98 | 14 | 
 | N#CCC1CCN(c2nc(Nc3ccc(N4CCN(CCO)CC4)cc3)c3c(=O)[nH]ncc3n2)CC1 [Example 191, 2-(1-(4-((4-(4-(2-hydroxyethyl)piperazin-1-yl)phenyl)amino)-5-oxo-5,6-dihydropyrimido[4,5-d]pyridazin-2-yl)piperidin-4-yl)acetonitrile] |  | 92 | 21 | 
